Four molecules from patent US10508123B2, “Polymorphs” (Vectura Limited, priority 2015, dated 2019) can be followed below.

Series [1] in a line: Competitive slurrying experiments (solid form by XRPD after one week). It counts as physicochemical. The protocol:
10 mg (+/−1 mg) each of the Form I, Form II, Form III, 1,2-dimethoxtethane solvate and the hydrate of (S)-3-(3-(1-methyl-2-oxo-5-(pyrazolo[1,5-a]pyridine-3-yl)-1H-imidazo[4,5-b]pyridine-3(2H)-yl)piperidin-1-yl)-3-oxopropanenitrile was added to each of twelve vials. The solvent systems used had been pre-saturated with (S)-3-(3-(1-methyl-2-oxo-5-(pyrazolo[1,5-a]pyridine-3-yl)-1H-imidazo[4,5-b]pyridine-3(2H)-yl)piperidin-1-yl)-3-oxopropanenitrile by shaking a slurry of Form I at the relevant temperature for 16 hours and then passing through a 1 μm glass filter.
The resulting slurries were agitated at the temperature shown for a period of one week. The solids present were then isolated by filtration, air dried and characterised by XRPD.

A short description of series [2]: Solubility of the compound in water (remark in the slurrying results). In kind it is physicochemical.

As for `Cn1c(=O)n([C@H]2CCCN(C(=O)CC#N)C2)c2nc(-c3cnn4ccccc34)ccc21` [Compound (I), (S)-3-(3-(1-methyl-2-oxo-5-(pyrazolo[1,5-a]pyridine-3-yl)-1H-imidazo[4,5-b]pyridine-3(2H)-yl)piperidin-1-yl)-3-oxopropanenitrile], the XRPD characterisation entry is listed as “Form II/Hydrate*” in series [1] (vial 1, water, 5 °C, slurry of Form I, II, III, 1,2-dimethoxyethane solvate and hydrate agitated one week, poor recovery hampered interpretation); “Form II/Form III/Hydrate” in series [1] (vial 2, water, 25 °C, mixed-form slurry, one week); “Form II” in series [1] (vial 3, water, 50 °C, mixed-form slurry, one week); “Form II” in series [1] (vial 4, MEK, 5 °C, mixed-form slurry, one week); “Form II” in series [1] (vial 5, MEK, 25 °C, mixed-form slurry, one week); “Form II” in series [1] (vial 6, MEK, 50 °C, mixed-form slurry, one week). The XRPD characterisation result in series [1] (vial 7, EtOAc, 5 °C, mixed-form slurry, one week) is reported as “Form II/1,2-dimethoxyethane solvate”; in series [1] (vial 8, EtOAc, 25 °C, mixed-form slurry, one week), “Form II/1,2-dimethoxyethane solvate”; in series [1] (vial 9, EtOAc, 50 °C, mixed-form slurry, one week), “Form II”; in series [1] (vial 10, IPA, 5 °C, mixed-form slurry, one week), “Form II”; in series [1] (vial 11, IPA, 25 °C, mixed-form slurry, one week) it was “Form II/1,2-dimethoxyethane solvate”; in series [1] (vial 12, IPA, 50 °C, mixed-form slurry, one week), “Form II”. Moreover, the solubility in water result in series [2] is listed as “poor solubility”.

Consider `Cn1c(=O)n([C@H]2CCCN(C(=O)CC#N)C2)c2nc(-c3cnn4ccccc34)ccc21` [Form I, (S)-3-(3-(1-methyl-2-oxo-5-(pyrazolo[1,5-a]pyridine-3-yl)-1H-imidazo[4,5-b]pyridine-3(2H)-yl)piperidin-1-yl)-3-oxopropanenitrile], for which the “form visible in the isolated solids” value in series [1] (all vials, except one of the experiments in water) is “No Form I or Form III material was visible”.

With `Cn1c(=O)n([C@H]2CCCN(C(=O)CC#N)C2)c2nc(-c3cnn4ccccc34)ccc21` [Form II, (S)-3-(3-(1-methyl-2-oxo-5-(pyrazolo[1,5-a]pyridine-yl)-1H-imidazo[45-b]pyridine-3(2H)-yl)piperidin-1-yl)-3-oxopropanenitrile], the “thermodynamic stability among the three anhydrous forms” value in series [1] (at all three temperatures evaluated (5, 25, 50 °C)) is on record as “most thermodynamically stable”. In series [1] (at temperatures up to 50 °C), the “thermodynamic stability compared to the other polymorphic forms or the solvates and hydrates” value is “greater thermodynamic stability”. Also, in series [1] (competitive slurrying experiments), the “thermodynamic stability compared to the Form 1 and Form III polymorphs” value is recorded as “surprisingly advantageous thermodynamic stability”.

As to `Cn1c(=O)n([C@H]2CCCN(C(=O)CC#N)C2)c2nc(-c3cnn4ccccc34)ccc21` [Hydrate I, (S)-3-(3-(1-methyl-2-oxo-5-(pyrazolo[1,5-a]pyridine-3-yl)-1H-imidazo[4,5-b]pyridine-3(2H)-yl)piperidin-1-yl)-3-oxopropanenitrile], the “stability of the hydrate relative to anhydrous Form II” value in series [1] (in organic solvents) is recorded as “less stable than the anhydrous Form II”. Moreover, the “conversion of the hydrate in the slurry” value in series [1] (water at 50 °C, not at 25 °C or 5 °C) is given as “complete conversion to Form II”.
